Measured values: paper PMC2833169, “Anti-malarial activity of a non-piperidine library of next-generation quinoline methanols” (Malaria Journal, 2010)
Values after ≈ are worked out from the molar mass of the structure shown. Like-named read-outs stand apart in the source and are kept apart here.

How the values were obtained:
[1] = tested on: P. falciparum strain TM90C2A; experiment: labeled hypoxanthine susceptibility assay, P. falciparum TM90C2A; type: cell-based, Plasmodium falciparum; details: for CSI (C2A/W2): ratio of IC90 C2A to IC90 W2
Experimental: (§1) The in vitro activities of quinoline methanols against P. falciparum strains W2, D6, TM91C235, and TM90C2A were evaluated using the traditional labeled hypoxanthine assay of Desjardins et al as modified by Milhous et al. These four P. falciparum strains were selected since they have various levels of resistance to conventional anti-malarials.

[2] = tested on: P. falciparum strain TM91C235; experiment: labeled hypoxanthine susceptibility assay, P. falciparum TM91C235; type: cell-based, Plasmodium falciparum; details: for IC90: Plasmodium falciparum, read-out: PF C235 IC90
Experimental: as §1

[3] = tested on: rodent macrophage (RAW) cell line; experiment: cells; details: read-out: Macrophage IC50
Experimental: General cytotoxicity was assessed by first determining LC50 's against a rodent macrophage (RAW) cell line using the 3-(4,5-dimethylthiazole-2-yl)-2,5-diphenyltetrazolium bromide (MTT) assay as described in one of our earlier studies. This screen was conducted to identify compounds that may require de-selection due to generalized toxicity. […] In vitro neurocytotoxicity was assessed by determining LC50s against primary mouse neurons using the MTT assay as described previously. Inhibition of the A2A and A1 receptors was determined at 200 nM in duplicate by Caliper Biosciences (Hanover, Maryland).

P. falciparum strain D6 = experiment: labeled hypoxanthine susceptibility assay, P. falciparum D6; type: cell-based, Plasmodium falciparum; details: for IC90: Plasmodium falciparum
Experimental: as §1

P. falciparum strain W2 = experiment: labeled hypoxanthine susceptibility assay, P. falciparum W2; type: cell-based, Plasmodium falciparum; details: for IC90: Plasmodium falciparum
Experimental: as §1

[4] = Plasmodium falciparum, TM90C2A, read-out: IC90 PfC2A
[5] = Plasmodium falciparum, TM90C2A, read-out: PF C2A IC90
[6] = D6, read-out: PF D6 IC90, P. falciparum D6

SMILES	IC90 [1, 4] [nM]	IC90 [2] [µg/mL]	IC50 ([3]; Mus musculus, Macrophage) [µM]	IC90 [1, 5] [µg/mL]	CSI (C2A/W2) [1]	IC90 (P. falciparum strain D6; [6]) [µg/mL]	IC90 (P. falciparum strain W2; W2, read-out: PF W2 IC90) [µg/mL]	other results
CCCCN(CCCC)CC(O)c1cc(C(F)(F)F)nc2c(C(F)(F)F)cccc12 (racemic) [WR176990]	44	–	–	–	–	–	–	–
CCCNCC(O)c1cc(C(F)(F)F)nc2c(C(F)(F)F)cccc12 (racemic) [WR183544]	40	–	–	–	–	–	–	–
OC(CNC1CCCCC1)c1cc(C(F)(F)F)nc2c(C(F)(F)F)cccc12 (racemic) [WR308248]	66	–	–	–	–	–	–	–
OC(CNCCC1=CCCCC1)c1cc(C(F)(F)F)nc2c(C(F)(F)F)cccc12 (racemic) [WR308249]	160	–	–	–	–	–	–	–
OC(CNCCc1ccccc1)c1cc(C(F)(F)F)nc2c(C(F)(F)F)cccc12 (racemic) [WR308253]	99	–	–	–	–	–	–	–
CCN(CC)CC(O)c1cc(C(F)(F)F)nc2c(C(F)(F)F)cccc12 (racemic) [WR308254]	176	–	–	–	–	–	–	–
CC(C)N(CC(O)c1cc(C(F)(F)F)nc2c(C(F)(F)F)cccc12)C(C)C (racemic) [WR308277]	75	–	–	–	–	–	–	–
Cc1ccc(CNCC(O)c2cc(C(F)(F)F)nc3c(C(F)(F)F)cccc23)cc1 (racemic) [WR308375]	103	–	–	–	–	–	–	–
CCCCN(CCC#N)CC(O)c1cc(C(F)(F)F)nc2c(C(F)(F)F)cccc12 (racemic) [WR308485]	204	–	–	–	–	–	–	–
N#CCCN(CC(O)c1cc(C(F)(F)F)nc2c(C(F)(F)F)cccc12)C1CCCCC1 (racemic) [WR308486]	144	–	–	–	–	–	–	–
OC(CNc1nc2ccccc2[nH]1)c1cc(C(F)(F)F)nc2c(C(F)(F)F)cccc12 (racemic) [WR308491]	190	–	–	–	–	–	–	–
CC1CCN(CC(C)(C)NCC(O)c2cc(C(F)(F)F)nc3c(C(F)(F)F)cccc23)CC1 (racemic) [WR308592]	137	–	–	–	–	–	–	–
CCCCN(CCCC)CC(O)c1cc(C(F)(F)F)nc2c(C(F)(F)F)cccc12 (racemic) [compound 176990]	–	0.027 (≈ 0.0619 µM)	46	0.019	7.9	0.011 (≈ 0.0252 µM)	0.00239 (≈ 0.00548 µM)	–
CCCCNCC(O)c1cc(C(F)(F)F)nc2c(C(F)(F)F)cccc12 (racemic) [compound 177000]	–	0.00891 (≈ 0.0234 µM)	7.8	0.0123	7.3	0.00658 (≈ 0.0173 µM)	0.00169 (≈ 0.00444 µM)	–
CCCNCC(O)c1cc(C(F)(F)F)nc2c(C(F)(F)F)cccc12 (racemic) [compound 183544]	–	0.014 (≈ 0.0382 µM)	–	0.016	14.5	0.0067 (≈ 0.0183 µM)	0.0011 (≈ 0.003 µM)	–
OC(CNC1CCCCC1)c1cc(C(F)(F)F)nc2c(C(F)(F)F)cccc12 (racemic) [compound 308248]	–	0.0144 (≈ 0.0353 µM)	19.8	0.027	10.8	0.00957 (≈ 0.0235 µM)	0.00249 (≈ 0.00613 µM)	–
OC(CNCCC1=CCCCC1)c1cc(C(F)(F)F)nc2c(C(F)(F)F)cccc12 (racemic) [compound 308249]	–	0.0392 (≈ 0.0906 µM)	27	0.0693	7.8	0.033 (≈ 0.0762 µM)	0.00885 (≈ 0.0205 µM)	–
OC(CNCCc1ccccc1)c1cc(C(F)(F)F)nc2c(C(F)(F)F)cccc12 (racemic) [compound 308253]	–	0.0229 (≈ 0.0536 µM)	22.5	0.0425	9.0	0.0191 (≈ 0.0446 µM)	0.00472 (≈ 0.011 µM)	–
CCN(CC)CC(O)c1cc(C(F)(F)F)nc2c(C(F)(F)F)cccc12 (racemic) [compound 308254]	–	0.0365 (≈ 0.096 µM)	5.5	0.0669	7.4	0.0264 (≈ 0.0694 µM)	0.00901 (≈ 0.0237 µM)	–
OC(CN1CCCC1)c1cc(C(F)(F)F)nc2c(C(F)(F)F)cccc12 (racemic) [compound 308268]	–	–	–	–	7.7	–	–	PF C235 IC90 ([2]; P. falciparum TM91C235): 0.04519 µg/mL; IC50 ([3]; RAW macrophages, range in brackets): 8.5 µM; PF C2A IC90 ([1]; P. falciparum TM90C2A): 0.09268 µg/mL; IC90 ([1]; calculated from ng/ml IC90 with MW in Column C, read-out: Pf C2A IC90 nM values calculated using MW in Column C): 245 nM; PF D6 IC90 (P. falciparum strain D6; P. falciparum D6): 0.04702 µg/mL; PF W2 IC90 (P. falciparum strain W2; P. falciparum W2): 0.01205 µg/mL
CC(C)N(CC(O)c1cc(C(F)(F)F)nc2c(C(F)(F)F)cccc12)C(C)C (racemic) [compound 308277]	–	0.0209 (≈ 0.0512 µM)	81.2	0.0305	6.7	0.0195 (≈ 0.0477 µM)	0.00452 (≈ 0.0111 µM)	–
Cc1ccc(CNCC(O)c2cc(C(F)(F)F)nc3c(C(F)(F)F)cccc23)cc1 (racemic) [compound 308375]	–	0.0443 (≈ 0.103 µM)	> 100	0.044	8.4	0.0392 (≈ 0.0916 µM)	0.00526 (≈ 0.0123 µM)	–
CCCCN(CCC#N)CC(O)c1cc(C(F)(F)F)nc2c(C(F)(F)F)cccc12 (racemic) [compound 308485]	–	0.059 (≈ 0.136 µM)	46.6	0.0883	9.5	0.0604 (≈ 0.139 µM)	0.00934 (≈ 0.0216 µM)	–
N#CCCN(CC(O)c1cc(C(F)(F)F)nc2c(C(F)(F)F)cccc12)C1CCCCC1 (racemic) [compound 308486]	–	0.0413 (≈ 0.0899 µM)	18.7	0.0662	12.1	0.0312 (≈ 0.0678 µM)	0.00549 (≈ 0.0119 µM)	–
OC(CNc1nc2ccccc2[nH]1)c1cc(C(F)(F)F)nc2c(C(F)(F)F)cccc12 (racemic) [compound 308491]	–	0.0716 (≈ 0.163 µM)	15.4	0.0835	3.8	0.0482 (≈ 0.11 µM)	0.0219 (≈ 0.0498 µM)	–
CC1CCN(CC(C)(C)NCC(O)c2cc(C(F)(F)F)nc3c(C(F)(F)F)cccc23)CC1 (racemic) [compound 308592]	–	0.0625 (≈ 0.131 µM)	38	0.0653	14.7	0.0284 (≈ 0.0594 µM)	0.00445 (≈ 0.00932 µM)	–
OC(c1cc(C(F)(F)F)nc2c(C(F)(F)F)cccc12)C1CCCCN1 (stereo not shown) [142490 (MQ)]	–	–	7.27	0.071	6.5	–	–	IC90 ([2]; P. falciparum TM91C235): 0.064 µg/mL (≈ 0.169 µM); IC90 ([1]; Plasmodium falciparum, TM90C2A, read-out: Pf C2A IC90 nM values calculated using MW in Column C): 171 nM; IC90 (P. falciparum strain D6; P. falciparum D6, read-out: PF D6 IC90): 0.025 µg/mL (≈ 0.0661 µM); IC90 (P. falciparum strain W2; P. falciparum W2, read-out: PF W2 IC90): 0.011 µg/mL (≈ 0.0291 µM)
